Assay results taken from US20240069044A1, “METHOD FOR DIAGNOSING A PREDISPOSITION OF A LIVING BEING TO DEVELOP THROMBOCYTOPENIA” (priority 2021, published 2024).

Tests used:
[1] = tested on: PRP from healthy individuals; experiment: Procoagulant platelets in platelet rich plasma (PRP) with patient sera/HIT IgG, flow cytometry; format: cell-based; details: for procoagulant PLT formation by HIT IgG fractions: PRP
Experimental: IgG fractions were isolated from HIT as well as from control sera by the use of a commercially available IgG-purification-kit (Melon™-Gel IgG Spin Purification Kit, Thermo Fisher Scientific, Waltham, USA) as recommended by the manufacturers. In brief, heat inactivated serum was diluted 1:10 in purification buffer and incubated with the kit specific Gel IgG Purification Support over four cycles for 10 min. Subsequently, periodically performed centrifugation steps through a 10 μm pore size filter tube were performed for 1 min at 5000×g. The flow throw was collected into 100 kDa pore sized centrifugal filters (Amicon Ultra-4, Merck Millipore, Cork, Ireland) with subsequent concentration to the initial volume of the used serum sample via centrifugation (10-15 min, 2000×g, 4° C., with brake). IgG concentrations were measured by excitation using a NanoDrop One at a wavelength of […] (VWR, Bruchsal, Germany).
For determination of procoagulant platelets in PRP, sera were prepared as described above. For PRP preparation, venous blood from healthy individuals was withdrawn into vacutainers containing sodium citrate 0.105 M (3.2%) (BD, Plymouth, UK) and allowed to rest for 20 min at RT. PRP was prepared by centrifugation (20 min, 120 g, RT) and adjusted with autologous platelet poor plasma (PPP, [10 min, 2000 g, RT]) to a PLT count of 300×10^6/ml. […] Afterwards, samples were processed as described for washed PLTs and analysed by flow cytometry (FC). Test results were determined as fold increase of the percentage of double PS/CD62p positive events in platelets upon incubation with patients' sera compared to the baseline.
37.5 μl wPLTs/PRP were supplemented with 1 μl of 10 IUs heparin (final concentration 0.2 IUs) or 1 μl of 5000 IUs heparin (final concentration 100 IUs) and 5 μL serum/IgG from HIT patients or control serum/IgG. […] Afterwards, PLTs were resuspended with HBSS to a final volume of 500 μL and immediately assessed via flow cytometry ([FC]), Navios, Beckman-Coulter, Brea, USA).

[2] = tested on: platelets from healthy donors; experiment: IgG binding to platelets by flow cytometry after incubation with VITT sera; format: cell-based
[3] = tested on: washed platelets from healthy donors; experiment: Heparin induced platelet activation assay (HIPA) with modifications, VITT sera; format: cell-based; details: for platelet activation by VITT sera in the presence of the additive: result in words
Experimental: (§1) A commercially available IgG-Enzyme Immune Assay (EIA) was used in accordance to manufacturer's instructions (Hyphen Biomed, Neuville-sur-Oise, France). Per manufacturer's recommendations, a sample was considered reactive if the optical density (OD) was ≥0.500. The ability of sera to activate platelets was tested using the functional assay heparin induced platelet aggregation assay (HIPA) as previously described. In brief, serum was tested with washed platelets (wPLTs) from four different healthy donors in the absence (buffer alone) or in the presence of unfractionated heparin (0.2 IU/mL and 100 IU/mL, [Ratiopharm, Ulm, Germany]). Reactions were placed in microtiter wells containing spherical stir bars and stirred at approximately 500 revolutions per minute (rpm). Wells were examined optically at five-minutes (min) interval for loss of turbidity. A serum was considered reactive (positive) if a shift from turbidity to transparency occurred within 30 min in at least two platelet suspensions. Observation time was 45 min. Each test included a diluted serum from a patient with HIT as a weak positive control, collagen (5 μg/mL) as strong positive control and a serum from a healthy donor as a negative control.
To investigate the ability of patients sera to activate platelets, the HIPA assay was used with several modifications. Sera were incubated with washed platelets in the presence of I) buffer, II) 0.2 IU/mL LMWH, III) 100 IU/mL UFH, IV) an Fc gamma receptor IIa (FcγRIIA)-blocking monoclonal antibody (mAb IV.3), VI) 30 mg/mL IVIG, VII) 25 μg/mL PF4, VIII) 50 μg/mL Spike-RBD, IX) PF4/Spike-RBD complexes, X) PF4+RBD or XI) ChAdOx1 nCoV-19 (XII). Conditions with PF4 and RBD were also repeated in the presence of high concentration of heparin (100 IU/mL UFH). […] (FIG. 5B). […] Antibody-mediated platelet activation was inhibited when low molecular weight heparin (LMWH) was added at low concentrations by testing three sera.

[4] = tested on: washed platelets from healthy donors; experiment: Antibody-mediated procoagulant platelets (CD62p/PS positive) by flow cytometry, VITT sera; format: cell-based; details: for FI CD62p/PS positive PLTs: VITT sera with washed platelets, 0.2 IU/mL LMWH, high concentration UFH, mAb IV.3, high concentrations of IgG, PF4 or Spike-RBD, sera alone 22.94±6.14
[5] = tested on: washed platelets from healthy donors; experiment: Procoagulant platelets induced by HIT patient sera, washed platelets, flow cytometry; format: cell-based; details: for generation of procoagulant platelets by patient sera in the presence of the additive: HIT, washed platelets (FIG. 8) or PRP (FIG. 9), 0.2 IU/mL LMWH, high concentration UFH, PF4, IV.3, result in words
Experimental: Prior to usage, all sera were heat-inactivated at 56° C. for 30 min, followed by a sharp centrifugation step at 5,000 g. The supernatant was collected in a fresh tube. For determination of procoagulant platelets, 5 μL serum was incubated with 25 μL washed platelets ([…]) for 1 h under rotating conditions at RT. Where indicated, cell suspensions were preincubated with PF4 (10 μg/ml) and Heparin (0.2 or 100 IU/ml). Afterwards, samples were washed once (7 min, 650 g, RT, without brake) and gently resuspended in 75 μL of phosphate-buffered saline (PBS, Biochrom, Berlin, Germany). Platelets were then stained with Annexin V-FITC and CD62-APC (Immunotools, Friesoythe Germany) and directly analyzed by flow cytometry (FC). Test results were determined as fold increase of the percentage of double PS/CD62p positive events in platelets upon incubation with patients' sera compared to the baseline.
37.5 μl wPLTs/PRP were supplemented with 1 μl of 10 IUs heparin (final concentration 0.2 IUs) or 1 μl of 5000 IUs heparin (final concentration 100 IUs) and 5 μL serum/IgG from HIT patients or control serum/IgG. Samples were filled up with PBS to a final volume of 50 μl and incubated for 1 hour under rotating conditions at RT. Afterwards, 5 μl of the PLT suspension were transferred into a final volume of 100 μL of Hank's balanced salt solution (HBSS) containing 137 mM NaCl, 1.25 mM CaCl2), 5.5 mM glucose, [Carl-Roth, Karlsruhe, Germany]) and incubated with 1 μL anti-CD62p-APC (BD, San Jose, USA), 1 μL Annexin-FITC (Immunotools, Friesoythe, Germany) and 2 μL anti-CD42a-PerCP (BD, San Jose, USA) for 30 min at RT in the dark. PLTs that were treated with thrombin receptor activating peptide (TRAP-6, [10 μM, 30 min at RT]) and ionomycin [5 μM, 15 min at RT] (both Sigma-Aldrich, St. Louis, USA) served as positive controls. Afterwards, PLTs were resuspended with HBSS to a final volume of 500 μL and immediately assessed via flow cytometry ([FC]), Navios, Beckman-Coulter, Brea, USA).
To investigate the mechanisms of HIT antibody-induced changes on PLTs, […] wPLTs/PRP were pretreated with Fc-gamma-RIIA blocking monoclonal antibody (moAb) anti-CD32 (moAb IV.3; Stemcell™ technologies, Vancouver, Canada) or a monoclonal isotype control ([SC-2025] Santa Cruz Biotechnology, Dallas, USA) for 30 min at RT prior to HIT serum/IgG treatment.

PF4/heparin complexes = biological target: T1, PF4/heparin complexes (Homo sapiens, UniProt P02776); experiment: IgG PF4/heparin EIA with sera from VITT patients; format: binding; details: VITT sera (8/8), in the presence of high concentration of heparin; without: 2.591±0.642; p<0.0001
T1 construct: purchased Hyphen Biomed, Neuville-sur-Oise, France
T1 sequence (P02776 32-101): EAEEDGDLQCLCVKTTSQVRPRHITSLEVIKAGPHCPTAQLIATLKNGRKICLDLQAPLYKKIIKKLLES
Experimental: as §1

PF4: small cytokine of the CXC chemokine family released from alpha-granules of activated platelets
procoagulant phenotype, sera from HIPA negative patients with PRP ([1]; in presence of PF4, when treated with 0.2 IU/ml Heparin (LMWH)): Strong increase | change in IgG binding to platelets in the presence of the additive ([2]; result in words): Only one serum showed increased binding | Median time to aggregate ([3]; VITT sera with washed platelets, 0.2 IU/mL LMWH, 25 μg/mL PF4, mAb IV.3 or 30 mg/mL IVIG, buffer alone 5 min, observation time 45 min): 5 min | platelet activation by VITT sera in the presence of the additive [3]: only in the presence e of PF4 | FI CD62p/PS positive PLTs [4]: 37.07±23.73 fold increase | procoagulant phenotype induced by diluted VITT sera ([4]; diluted sera (from 1:64), result in words): only in the presence e of PF4 | generation of procoagulant platelets by patient sera in the presence of the additive [5]: increase of procoagulant platelets

heparin
procoagulant PLT formation by HIT IgG fractions ([1]; supratherapeutic (100 IUs) doses of heparin): not observed | procoagulant PLT formation by HIT IgG fractions ([1]; therapeutic doses (0.2 IUs) heparin): showed the capability to induce procoagulant PLTs | FI of MFI IgG binding to platelets ([2]; heparin at high concentrations (100 IU/ml), without heparin 4.39±1.15, p 0.016): 1.51±0.66 fold increase | FI of MFI of IgG binding to platelets ([2]; heparin at low concentrations (0.2 U/mL), without heparin 4.39±1.15, p 0.688): 3.60±2.01 fold increase | platelet activation by VITT sera in the presence of the additive [3]: All reactions were inhibited | FI CD62p/PS positive PLTs [4]: 1.92±0.96 fold increase | CD62p/PS positive PLTs, mean %±SEM ([5]; HIT sera with wPLTs, supratherapeutic (Hep. 100 IUs) doses of heparin): 1.18±0.28% | CD62p/PS positive PLTs, mean percent [mean %]±SEM ([5]; HIT sera with wPLTs, therapeutic (0.2 IUs) heparin, HC sera 1±0): 44.99±6.26% | generation of procoagulant platelets by patient sera in the presence of the additive [5]: completely inhibited | mean optical density [OD] of IgG antibodies against PF4/heparin complexes (PF4/heparin complexes): 0.176±0.073 OD
